Results on six molecules are retold here after ChEMBL document CHEMBL1201862, “PubChem BioAssay data set” (2004).

Activity calls are given as the source filed them. Some results are limits rather than exact numbers.

Assay [1] can be described thus: P. falciparum late gametocyte killing, dose response, luminescence (AID 1117278).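 Further: gametocytes exposed to compound for 24 hours.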 The assay is classed as functional, cell-based.
Assay [2] can be described thus: Jurkat T cell cytotoxicity, dose response, cytotoxicity control for P. falciparum gametocyte viability project, luminescence (AID 1117277).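 Further: potency reflects loss of cellular ATP meaning fewer viable cells.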 Format: functional, cell-based.
The nature of assay [3]: Luminescence Cell-Based Dose Response HTS to Identify Inhibitors of 5'UTR Stem-Loop Driven Prion Protein mRNA Translation in H4 Neuroglioblastoma Cells. [Related pubchem assays: 1827 (Project Summary), 1813 (Primary HTS)]. The assay is classed as functional.
Another assay concerns the target T1, Protein skinhead-1 (Caenorhabditis elegans, UniProt P34707).
T1 sequence (P34707 whole entry): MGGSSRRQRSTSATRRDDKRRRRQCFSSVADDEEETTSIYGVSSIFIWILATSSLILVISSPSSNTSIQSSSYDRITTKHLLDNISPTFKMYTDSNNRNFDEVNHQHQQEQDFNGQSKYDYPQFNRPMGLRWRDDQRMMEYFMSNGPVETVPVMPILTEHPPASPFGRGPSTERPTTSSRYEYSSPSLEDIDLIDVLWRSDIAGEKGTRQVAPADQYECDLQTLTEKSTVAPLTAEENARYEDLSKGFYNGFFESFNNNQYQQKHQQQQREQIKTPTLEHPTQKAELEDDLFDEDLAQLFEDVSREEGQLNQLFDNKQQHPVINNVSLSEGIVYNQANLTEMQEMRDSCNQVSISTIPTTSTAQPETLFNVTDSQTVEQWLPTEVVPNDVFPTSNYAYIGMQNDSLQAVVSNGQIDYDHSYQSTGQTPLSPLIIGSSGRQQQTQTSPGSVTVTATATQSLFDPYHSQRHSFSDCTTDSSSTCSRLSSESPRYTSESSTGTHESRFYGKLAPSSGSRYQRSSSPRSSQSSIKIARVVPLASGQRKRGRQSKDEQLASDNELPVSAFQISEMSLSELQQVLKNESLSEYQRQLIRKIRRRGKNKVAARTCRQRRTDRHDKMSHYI
Format: functional.

The nature of assay [4]: inhibitors of firefly luciferase expression or activity, dose response, H4 neuroglioma cells, luminescence (AID 1990). Format: functional, cell-based.
Assay [5] is described as follows: HepG2 cell cytotoxicity, dose response, cytotoxicity control, plate reader, cherry-pick, antagonist series (AID 743416). Format: functional, cell-based.
Assay [6] is described as follows: MC4R antagonists, dose response, counter-screen for LGR2 antagonist project, cell-based, plate reader, cherry pick (AID 743444).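 Further: transfected HEK 293 cells stimulated with alpha-MSH peptide; potency of inhibitors of the alpha-MSH evoked signal.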 The assay is classed as functional. In general terms: Counterscreens check selectivity or assay interference.
Assay [7] is described as follows: LGR2 antagonists, dose response, cell-based, HEK293, CRE-luciferase reporter, cherry pick, set 2 (AID 743343).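 Further: transfected cells were stimulated with diluted bursicon conditioned medium after compound addition.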 Format: functional.
A short description of assay [8]: inhibitors of SNCA 5'UTR-driven reporter translation, confirmation, H4 neuroglioma cells, luminescence (AID 1988). Format: functional, cell-based.
A short description of assay [9]: HEK293 cell cytotoxicity, dose response, cytotoxicity control, plate reader, cherry-picked samples (AID 743446). Format: functional, cell-based.
For assay [10], the target named is T2, 1-phosphatidylinositol 4,5-bisphosphate phosphodiesterase beta-3 (Homo sapiens, UniProt Q01970).
T2 sequence (Q01970 whole entry): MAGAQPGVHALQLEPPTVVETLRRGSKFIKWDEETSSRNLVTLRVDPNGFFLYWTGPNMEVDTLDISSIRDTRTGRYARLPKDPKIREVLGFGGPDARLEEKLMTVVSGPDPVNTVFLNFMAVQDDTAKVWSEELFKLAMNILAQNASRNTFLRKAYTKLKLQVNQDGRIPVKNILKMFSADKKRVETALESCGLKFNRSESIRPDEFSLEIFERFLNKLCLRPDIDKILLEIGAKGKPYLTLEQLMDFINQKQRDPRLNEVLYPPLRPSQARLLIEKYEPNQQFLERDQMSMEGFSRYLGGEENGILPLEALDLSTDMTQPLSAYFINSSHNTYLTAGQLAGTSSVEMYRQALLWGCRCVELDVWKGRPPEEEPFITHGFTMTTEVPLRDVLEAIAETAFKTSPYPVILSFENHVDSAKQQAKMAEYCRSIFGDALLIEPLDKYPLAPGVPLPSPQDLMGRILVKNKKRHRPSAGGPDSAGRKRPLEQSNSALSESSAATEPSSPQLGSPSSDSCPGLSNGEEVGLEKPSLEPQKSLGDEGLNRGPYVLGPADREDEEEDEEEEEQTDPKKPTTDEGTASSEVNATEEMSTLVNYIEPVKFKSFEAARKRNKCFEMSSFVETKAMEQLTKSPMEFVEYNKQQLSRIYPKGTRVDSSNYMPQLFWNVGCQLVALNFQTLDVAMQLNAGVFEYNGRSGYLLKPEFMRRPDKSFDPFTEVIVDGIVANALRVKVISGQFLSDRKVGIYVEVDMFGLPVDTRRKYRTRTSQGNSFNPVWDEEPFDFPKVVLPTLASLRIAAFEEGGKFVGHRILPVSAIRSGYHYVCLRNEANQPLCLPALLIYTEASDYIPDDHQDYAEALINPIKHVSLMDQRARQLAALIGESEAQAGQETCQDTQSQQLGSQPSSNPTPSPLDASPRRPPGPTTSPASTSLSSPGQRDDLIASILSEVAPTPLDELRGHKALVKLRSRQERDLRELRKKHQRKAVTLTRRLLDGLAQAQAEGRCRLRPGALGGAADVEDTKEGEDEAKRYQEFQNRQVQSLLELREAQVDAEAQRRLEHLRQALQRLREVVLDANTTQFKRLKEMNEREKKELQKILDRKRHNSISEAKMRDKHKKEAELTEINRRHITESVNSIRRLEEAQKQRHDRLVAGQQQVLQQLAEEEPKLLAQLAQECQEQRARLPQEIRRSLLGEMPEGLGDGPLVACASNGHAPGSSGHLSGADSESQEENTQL
Nature of the assay: Fluorescence-based biochemical high throughput dose response assay to identify inhibitors of phospholipase C isozymes (PLC-B3).

The target of assay [11] is T3, 1-phosphatidylinositol 4,5-bisphosphate phosphodiesterase gamma-1 (Homo sapiens, UniProt P19174).
T3 sequence (P19174 whole entry): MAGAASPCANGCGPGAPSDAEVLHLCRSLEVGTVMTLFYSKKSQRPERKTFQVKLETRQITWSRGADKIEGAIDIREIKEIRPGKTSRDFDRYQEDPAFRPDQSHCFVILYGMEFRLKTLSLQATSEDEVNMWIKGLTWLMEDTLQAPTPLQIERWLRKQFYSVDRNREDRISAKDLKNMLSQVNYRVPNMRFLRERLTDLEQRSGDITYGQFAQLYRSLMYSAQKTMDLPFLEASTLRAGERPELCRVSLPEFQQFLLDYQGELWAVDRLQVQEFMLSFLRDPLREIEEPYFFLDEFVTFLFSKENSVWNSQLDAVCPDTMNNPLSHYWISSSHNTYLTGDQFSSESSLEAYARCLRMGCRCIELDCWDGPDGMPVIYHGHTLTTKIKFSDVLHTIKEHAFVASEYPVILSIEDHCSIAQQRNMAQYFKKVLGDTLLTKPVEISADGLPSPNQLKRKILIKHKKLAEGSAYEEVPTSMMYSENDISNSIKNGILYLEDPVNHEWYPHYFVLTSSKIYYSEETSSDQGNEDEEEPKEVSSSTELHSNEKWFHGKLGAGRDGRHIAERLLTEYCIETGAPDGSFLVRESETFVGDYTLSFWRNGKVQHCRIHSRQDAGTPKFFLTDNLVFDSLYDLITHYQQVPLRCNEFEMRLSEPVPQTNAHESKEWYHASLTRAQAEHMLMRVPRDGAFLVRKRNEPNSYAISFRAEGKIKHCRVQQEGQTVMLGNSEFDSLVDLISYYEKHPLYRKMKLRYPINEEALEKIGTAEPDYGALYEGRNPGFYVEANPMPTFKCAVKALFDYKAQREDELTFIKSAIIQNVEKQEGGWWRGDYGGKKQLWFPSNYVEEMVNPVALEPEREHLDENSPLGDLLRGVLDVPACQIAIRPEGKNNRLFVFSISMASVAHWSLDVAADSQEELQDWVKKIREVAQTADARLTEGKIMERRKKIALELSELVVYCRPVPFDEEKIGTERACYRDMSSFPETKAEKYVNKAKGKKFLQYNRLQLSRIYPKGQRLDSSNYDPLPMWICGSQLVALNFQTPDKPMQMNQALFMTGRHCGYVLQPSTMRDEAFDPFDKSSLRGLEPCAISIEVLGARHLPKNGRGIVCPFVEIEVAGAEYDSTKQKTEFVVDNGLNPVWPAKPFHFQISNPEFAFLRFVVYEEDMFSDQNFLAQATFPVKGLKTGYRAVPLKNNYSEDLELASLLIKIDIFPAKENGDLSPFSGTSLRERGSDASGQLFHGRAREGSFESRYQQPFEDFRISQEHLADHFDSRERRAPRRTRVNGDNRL
Nature of the assay: Counterscreen for inhibitors of phospholipase C isozymes (PLC-B3): Fluorescence-based biochemical high throughput dose response assay to identify inhibitors of phospholipase C isozymes (PLC-gamma1).

Assay [12] deals with T4, COUP transcription factor 2 (Homo sapiens, UniProt P24468).
T4 sequence (P24468 whole entry): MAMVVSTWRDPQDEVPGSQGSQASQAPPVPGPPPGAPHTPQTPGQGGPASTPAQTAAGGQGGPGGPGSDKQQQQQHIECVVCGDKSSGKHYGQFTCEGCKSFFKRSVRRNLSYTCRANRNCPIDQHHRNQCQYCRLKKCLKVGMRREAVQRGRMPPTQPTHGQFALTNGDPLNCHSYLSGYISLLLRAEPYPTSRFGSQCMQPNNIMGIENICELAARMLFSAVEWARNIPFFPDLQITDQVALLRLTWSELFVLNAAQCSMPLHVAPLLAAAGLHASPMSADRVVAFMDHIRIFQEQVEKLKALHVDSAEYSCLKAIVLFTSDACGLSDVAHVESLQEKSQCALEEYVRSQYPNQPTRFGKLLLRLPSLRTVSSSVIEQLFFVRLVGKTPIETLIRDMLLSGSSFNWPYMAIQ
Nature of the assay: Luminescence-based cell-based high throughput dose response assay to identify inhibitors of COUP-TFII (NR2F2). The assay is classed as functional.

Usually IC50 stands for the point on the concentration scale where inhibition reaches its midpoint. As for `Cc1ccc(C(=O)N2CCN(S(=O)(=O)c3ccccc3)CC2)cc1`, the IC50 in [1] was > 109 µM (inactive); in [2], > 83.3 µM (inactive).

What is called EC50 is the concentration at which the effect is half-maximal. For orientation: AC50 means the concentration giving half of the maximal activity seen. For the molecule `CCCOc1ccc2cc(-c3ccccn3)c(=O)oc2c1`, the EC50 in [3] was 9.71 µM (active); in assay [4], 2.91 µM (active); in assay [8], 2.83 µM (active). At Protein skinhead-1, the IC50 was > 100 µM (inactive). The AC50 is > 52 µM (inactive) in [5], 2 µM (active) in [6], 1.48 µM (active) in assay [7] and 33.6 µM (active) in assay [9].

Consider `Cc1ccc(S(=O)(=O)Cc2nc(O)c3ccccc3n2)cc1`, for which the IC50 in assay [10] and in [11] was > 123 µM (inactive) in each case.

On to `O=C(COC(=O)CSc1ccc2ccccc2c1)NCc1ccc2c(c1)OCO2`, for which the IC50 in assay [1] is > 109 µM (inactive); in assay [2], > 83.3 µM (inactive).

In the case of `Cn1c2ccccc2c(=O)c2cc(C#CC3(O)CCCCC3)ccc21`, in assay [12], the IC50 is 12 µM (inactive).

As for `Cc1cc(NC(=O)c2ccccc2)ncc1NC(=O)c1cccs1`, the IC50 in [10] and in assay [11] was > 122 µM (inactive) throughout.
